The values below are quoted from earlier work in US20240174620A1, “SOLID FORMS OF SAFLUFENACIL-SODIUM AND SAFLUFENACIL-POTASSIUM, PROCESS OF PREPARATION AND USE THEREOF” (ADAMA AGAN LTD., priority 2021, published 2024).

Where two headings read alike, the source gives them in different places.

Experiment in data set [1]: not given
The source holds these as a separate data set.

In the case of `CC(C)N(C)S(=O)(=O)NC(=O)c1cc(-n2c(=O)cc(C(F)(F)F)n(C)c2=O)c(F)cc1Cl` [Saflufenacil], the “solubility in 1-octanol” value (1-octanol, 20° C.) is reported as under 0.01 g/100 mL. Further, under “acetone, 20° C.”, the solubility in acetone is 27.5 g/100 mL. Where the note is “acetonitrile, 20° C.”, the solubility in acetonitrile was 19.4 g/100 mL. Also, the “solubility in ethyl acetate” value (ethyl acetate, 20° C.) is reported as 6.55 g/100 mL. The “solubility in isopropyl alcohol” value (isopropyl alcohol, 20° C.) is recorded as 0.25 g/100 mL. For the setting “methanol, 20° C.”, the solubility in methanol is recorded as 2.98 g/100 mL. Also, the solubility in n-heptane (n-heptane, 20° C.) is under 0.005 g/100 mL. Besides, the solubility in tetrahydrofurane (tetrahydrofurane, 20° C.) was 36.2 g/100 mL. Besides, the solubility in toluene (toluene, 20° C.) was 0.23 g/100 mL. The solubility in water is reported as 0.0025 g/100 mL (pH 5, 20° C.) and 0.21 g/100 mL (pH 7, 20° C.). In addition, in data set [1], the pKa was 4.41.
